US20230295234A1, “ANTIMICROBIAL PEPTIDOMIMETICS” (SPEXIS AG, priority 2020, published 2023)
Bridge positions count the residues as written; N and C are the ends. Square brackets hold non-standard residues; d marks the D form. Peptide text beside a SMILES is read from it. Pro(4R-NH2) = N[C@H]1CN[C@H](C(=O)O)C1; Gly(N-2-aminoethyl) = NCCNCC(=O)O; Hyp = O=C(O)[C@@H]1C[C@@H](O)CN1; Gly(N(CH2)3NH2) = NCCCNCC(=O)O; Pen = CC(C)(S)[C@H](N)C(=O)O; dDab = NCC[C@@H](N)C(=O)O; Dab = NCC[C@H](N)C(=O)O; Nlys = NCCCCNCC(=O)O

How the values were obtained:
[1] = tested on: Escherichia coli ATCC 25922; details: ATCC 25922
Procedure, shortened: (§1)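 Activity is measured against peptides serially diluted two-fold in water with 0.002% final Polysorbate 80. The cells are in cation-adjusted MHII broth at roughly 5×10^5 CFU/mL, prepared from a 0.5 McFarland suspension in 0.85% NaCl.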

[2] = tested on: Escherichia coli MCR-1 Af 45; details: MCR-1 Af 45
Procedure, shortened: as §1

[3] = tested on: Klebsiella pneumoniae SSI3010; details: SSI3010
Procedure, shortened: as §1

[4] = tested on: human red blood cells (hRBC); test: Hemolysis of human red blood cells; type: cell-based; details: red cells of human, 1 h
Procedure, shortened: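 PBS-washed human red blood cells (20% v/v) were incubated with peptide at 200 μg/mL for 1 h at 37 °C with shaking. Supernatant OD was read at 540 nm after 8-fold dilution. Hemolysis is expressed as percent of the water control.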

Row | Compound | Escherichia coli ATCC 25922 MIC [1] [µg/mL] | Escherichia coli MCR-1 Af 45 MIC [2] [µg/mL] | Klebsiella pneumoniae SSI3010 MIC [3] [µg/mL] | Hemolysis at 0.2 g/L [4] [%]
1 | CC[C@H](C)[C@H](NC(=O)[C@@H]1C[C@@H](O)CN1C(=O)[C@@H](NC(=O)[C@@H]1C[C@@H](O)CN1C(=O)CNCCCN)C(C)C)C(=O)N[C@H](C(=O)N[C@@H](Cc1ccc(O)cc1)C(=O)N[C@@H]1C(=O)N[C@@H](CC(N)=O)C(=O)N[C@@H](CCCNC(=N)N)C(=O)N[C@@H](CCN)C(=O)N[C@@H]([C@@H](C)O)C(=O)N[C@H](CCN)C(=O)N[C@@H](CCCCN)C(=O)N[C@H](C(=O)N[C@@H](CCN)C(=O)N[C@@H](CCCNC(=N)N)C(=O)N[C@@H](Cc2ccc(O)cc2)C(=O)O)CSSC1(C)C)[C@@H](C)O [Example 42, Norn-Hyp-Val-Hyp-Ile-Thr-Tyr-Pen-Asn-Arg-Dab-Thr-^DDab-Lys-Cys-Dab-Arg-Tyr] (HELM PEPTIDE1{[NCCCNCC(=O)[*:2]].[Hyp].V.[Hyp].I.T.Y.[Pen].N.R.[Dab].T.[NCC[C@@H](N[*:1])C(=O)[*:2]].K.C.[Dab].R.Y}$PEPTIDE1,PEPTIDE1,8:R3-15:R3$$$V2.0) | 0.125 | 0.125 | 0.25 | 0
2 | CC[C@H](C)[C@H](NC(=O)[C@@H]1C[C@@H](N)CN1C(=O)[C@@H](NC(=O)[C@@H]1C[C@@H](O)CN1C(=O)[C@@H](N)CCCCN)C(C)C)C(=O)N[C@H](C(=O)N[C@@H](Cc1ccc(O)cc1)C(=O)N[C@@H]1C(=O)N[C@@H](CC(N)=O)C(=O)N[C@@H](CCCNC(=N)N)C(=O)N[C@@H](CCN)C(=O)N[C@@H]([C@@H](C)O)C(=O)N[C@H](CCN)C(=O)N[C@@H](CCCCN)C(=O)N[C@H](C(=O)N[C@@H](CCN)C(=O)N[C@@H](CCCNC(=N)N)C(=O)N[C@@H](Cc2ccc(O)cc2)C(=O)O)CSSC1(C)C)[C@@H](C)O [Example 43, Lys-Hyp-Val-Pro((4R)NH2)-Ile-Thr-Tyr-Pen-Asn-Arg-Dab-Thr-^DDab-Lys-Cys-Dab-Arg-Tyr] (HELM PEPTIDE1{K.[Hyp].V.[N[C@@H]1C[C@@H](C(=O)[*:2])N([*:1])C1].I.T.Y.[Pen].N.R.[Dab].T.[NCC[C@@H](N[*:1])C(=O)[*:2]].K.C.[Dab].R.Y}$PEPTIDE1,PEPTIDE1,8:R3-15:R3$$$V2.0) | 0.125 | 0.125 | 0.125 | 0
3 | CC[C@H](C)[C@H](NC(=O)[C@@H]1C[C@@H](N)CN1C(=O)[C@@H](NC(=O)[C@@H]1C[C@@H](O)CN1C(=O)CNCCN)C(C)C)C(=O)N[C@H](C(=O)N[C@@H](Cc1ccc(O)cc1)C(=O)N[C@@H]1C(=O)N[C@@H](CC(N)=O)C(=O)N[C@@H](CCCNC(=N)N)C(=O)N[C@@H](CCN)C(=O)N[C@@H]([C@@H](C)O)C(=O)N[C@H](CCN)C(=O)N[C@@H](CCCCN)C(=O)N[C@H](C(=O)N[C@@H](CCN)C(=O)N[C@@H](CCCNC(=N)N)C(=O)N[C@@H](Cc2ccc(O)cc2)C(=O)O)CSSC1(C)C)[C@@H](C)O [Example 44, Ndab-Hyp-Val-Pro((4R)NH2)-Ile-Thr-Tyr-Pen-Asn-Arg-Dab-Thr-^DDab-Lys-Cys-Dab-Arg-Tyr] (H-[Gly(N-2-aminoethyl)][Hyp]V[Pro(4R-NH2)]ITY[Pen]NR[Dab]T[dDab]KC[Dab]RY-OH; disulfide 8-15) | 0.25 | 0.125 | 0.25 | 0
4 | CC[C@H](C)[C@H](NC(=O)[C@@H]1C[C@@H](N)CN1C(=O)[C@@H](NC(=O)[C@@H]1C[C@@H](O)CN1C(=O)CNCCCN)C(C)C)C(=O)N[C@H](C(=O)N[C@@H](Cc1ccc(O)cc1)C(=O)N[C@@H]1C(=O)N[C@@H](CC(N)=O)C(=O)N[C@@H](CCCNC(=N)N)C(=O)N[C@@H](CCN)C(=O)N[C@@H]([C@@H](C)O)C(=O)N[C@H](CCN)C(=O)N[C@@H](CCCCN)C(=O)N[C@H](C(=O)N[C@@H](CCN)C(=O)N[C@@H](CCCNC(=N)N)C(=O)N[C@@H](Cc2ccc(O)cc2)C(=O)O)CSSC1(C)C)[C@@H](C)O [Example 45, Norn-Hyp-Val-Pro((4R)NH2)-Ile-Thr-Tyr-Pen-Asn-Arg-Dab-Thr-^DDab-Lys-Cys-Dab-Arg-Tyr] (H-[Gly(N(CH2)3NH2)][Hyp]V[Pro(4R-NH2)]ITY[Pen]NR[Dab]T[dDab]KC[Dab]RY-OH; disulfide 8-15) | 0.0625 | 0.0625 | 0.125 | 0
5 | CC[C@H](C)[C@H](NC(=O)[C@@H]1C[C@@H](N)CN1C(=O)[C@@H](NC(=O)[C@@H]1C[C@@H](O)CN1C(=O)CNCCCCN)C(C)C)C(=O)N[C@H](C(=O)N[C@@H](Cc1ccc(O)cc1)C(=O)N[C@@H]1C(=O)N[C@@H](CC(N)=O)C(=O)N[C@@H](CCCNC(=N)N)C(=O)N[C@@H](CCN)C(=O)N[C@@H]([C@@H](C)O)C(=O)N[C@H](CCN)C(=O)N[C@@H](CCCCN)C(=O)N[C@H](C(=O)N[C@@H](CCN)C(=O)N[C@@H](CCCNC(=N)N)C(=O)N[C@@H](Cc2ccc(O)cc2)C(=O)O)CSSC1(C)C)[C@@H](C)O [Example 46, Nlys-Hyp-Val-Pro((4R)NH2)-Ile-Thr-Tyr-Pen-Asn-Arg-Dab-Thr-^DDab-Lys-Cys-Dab-Arg-Tyr] (H-[Nlys][Hyp]V[Pro(4R-NH2)]ITY[Pen]NR[Dab]T[dDab]KC[Dab]RY-OH; disulfide 8-15) | ≤0.03125 | ≤0.03125 | 0.125 | 0
6 | CC[C@H](C)[C@H](NC(=O)CN(CCN)C(=O)[C@@H](NC(=O)[C@@H]1C[C@@H](O)CN1C(=O)[C@@H](N)CCCCN)C(C)C)C(=O)N[C@H](C(=O)N[C@@H](Cc1ccc(O)cc1)C(=O)N[C@@H]1C(=O)N[C@@H](CC(N)=O)C(=O)N[C@@H](CCCNC(=N)N)C(=O)N[C@@H](CCN)C(=O)N[C@@H]([C@@H](C)O)C(=O)N[C@H](CCN)C(=O)N[C@@H](CCCCN)C(=O)N[C@H](C(=O)N[C@@H](CCN)C(=O)N[C@@H](CCCNC(=N)N)C(=O)N[C@@H](Cc2ccc(O)cc2)C(=O)O)CSSC1(C)C)[C@@H](C)O [Example 47, Lys-Hyp-Val-Ndab-Ile-Thr-Tyr-Pen-Asn-Arg-Dab-Thr-^DDab-Lys-Cys-Dab-Arg-Tyr] (HELM PEPTIDE1{K.[Hyp].V.[NCCN(CC(=O)[*:2])[*:1]].I.T.Y.[Pen].N.R.[Dab].T.[NCC[C@@H](N[*:1])C(=O)[*:2]].K.C.[Dab].R.Y}$PEPTIDE1,PEPTIDE1,8:R3-15:R3$$$V2.0) | 0.0625 | ≤0.03125 | 0.25 | 0
7 | CC[C@H](C)[C@H](NC(=O)CN(CCN)C(=O)[C@@H](NC(=O)[C@@H]1C[C@@H](O)CN1C(=O)CNCCCN)C(C)C)C(=O)N[C@H](C(=O)N[C@@H](Cc1ccc(O)cc1)C(=O)N[C@@H]1C(=O)N[C@@H](CC(N)=O)C(=O)N[C@@H](CCCNC(=N)N)C(=O)N[C@@H](CCN)C(=O)N[C@@H]([C@@H](C)O)C(=O)N[C@H](CCN)C(=O)N[C@@H](CCCCN)C(=O)N[C@H](C(=O)N[C@@H](CCN)C(=O)N[C@@H](CCCNC(=N)N)C(=O)N[C@@H](Cc2ccc(O)cc2)C(=O)O)CSSC1(C)C)[C@@H](C)O [Example 48, Norn-Hyp-Val-Ndab-Ile-Thr-Tyr-Pen-Asn-Arg-Dab-Thr-^DDab-Lys-Cys-Dab-Arg-Tyr] (H-[Gly(N(CH2)3NH2)][Hyp]V[Gly(N-2-aminoethyl)]ITY[Pen]NR[Dab]T[dDab]KC[Dab]RY-OH; disulfide 8-15; N-terminus and C-terminus assumed) | 0.125 | 0.0625 | 0.25 | 0
8 | CC[C@H](C)[C@H](NC(=O)CN(CCN)C(=O)[C@@H](NC(=O)[C@@H]1C[C@@H](O)CN1C(=O)CNCCCCN)C(C)C)C(=O)N[C@H](C(=O)N[C@@H](Cc1ccc(O)cc1)C(=O)N[C@@H]1C(=O)N[C@@H](CC(N)=O)C(=O)N[C@@H](CCCNC(=N)N)C(=O)N[C@@H](CCN)C(=O)N[C@@H]([C@@H](C)O)C(=O)N[C@H](CCN)C(=O)N[C@@H](CCCCN)C(=O)N[C@H](C(=O)N[C@@H](CCN)C(=O)N[C@@H](CCCNC(=N)N)C(=O)N[C@@H](Cc2ccc(O)cc2)C(=O)O)CSSC1(C)C)[C@@H](C)O [Example 49, Nlys-Hyp-Val-Ndab-Ile-Thr-Tyr-Pen-Asn-Arg-Dab-Thr-^DDab-Lys-Cys-Dab-Arg-Tyr] (H-[Nlys][Hyp]V[Gly(N-2-aminoethyl)]ITY[Pen]NR[Dab]T[dDab]KC[Dab]RY-OH; disulfide 8-15; N-terminus and C-terminus assumed) | 0.125 | 0.125 | 0.25 | 0
